“Also recorded” adds a separate entry of the source.
Legend:
[1] = tested on: murine hepcidin (HAMP1) mRNA; assay: Basal hepatic hepcidin mRNA in mice; format: in vivo; conditions: C57BL/6 mice, single tail vein injection 10 mg/kg, 6 hours
hepcidin promoter = assay: Hepcidin promoter luciferase reporter assay (Hep-Luc) in Hep3B cells; format: cell-based
Experimental: (§1) Murine PASMCs grown to 50% confluence in 6-well plates were transiently transfected with 0.3 μg Id1 promoter luciferase reporter construct (BRE-Luc, Dr. Peter ten Dijke, Leiden University Medical Center, Netherlands (Korchynskyi et al., J. Biol. Chem. 277:4883-4891, 2002)) in combination with 0.6 μg plasmids expressing constitutively-active forms of BMP type I receptors (caALK2, caALK3, or caALK6, kindly provided by Dr. Kohei Miyazono, University of Tokyo, Japan (Fujii et al., Mol. Biol. Cell 10:3801-3813, 1999)), using Fugene6 (Roche). To assess Activin and […] type I receptor function, PASMCs were transiently transfected with 0.3 μg PAI-1 promoter luciferase reporter construct (CAGA-Luc, Dr. Peter ten Dijke (Dennler et al., Embo J. 17:3091-3100, 1998)) in combination with 0.6 μg plasmids expressing constitutively active forms of type I receptors (caALK4, caALK5, and caALK7, also provided by Dr. Kohei Miyazono (Okadome et al., J. Biol. Chem. 271:21687-21690, 1996; Shimizu et al., Genes Cells 3:125-134, 1998)). For both reporters, 0.2 μg pRL-TK Renilla luciferase (Promega) was used to control for transfection efficiency. […] Cell extracts were harvested, and relative promoter activity quantitated by the ratio of firefly to Renilla luciferase activity using the dual luciferase assay kit (Promega). […] Hepcidin promoter activity was measured by luciferase assay as above.

zebrafish hepcidin mRNA = assay: Iron-dextran challenge: hepatic hepcidin mRNA in adult zebrafish; format: in vivo; conditions: 23 μg/g co-injected with iron-dextran, 3 hours
[2] = tested on: zebrafish embryos (eve1, pax2.1, krox20, MyoD); assay: Wholemount zebrafish in situ hybridization of dorsal and ventral markers; format: in vivo
Experimental: In situ hybridization was performed as previously described (Westerfield, The Zebrafish Book, (University of Oregon Press, Eugene, Oreg., 1993)). Zebrafish krox20, pax2.1, and MyoD probes were produced as previously described (Weinberg et al., Development 122:271-280, 1996).

caALK3 = molecular target: T1, caALK3 (Homo sapiens, UniProt P36894, Q233D); assay: Constitutively-active ALK3 transfection: phospho-SMAD1/5/8 immunoblot and Id1 promoter (BRE-Luc); format: cell-based; conditions: BMPR-II-deficient PASMCs
T1 construct: expressed in transfected cells; host or cells: murine PASMCs (BMPR-II-deficient), transient transfection
Experimental: Cell extracts or tissues were mechanically homogenized in SDS-lysis buffer (62.5 mM Tris-HCl (pH 6.8), 2% SDS, 10% glycerol, 50 mM DTT, 0.01% bromophenol blue); separated by SDS-PAGE; immunoblotted with anti-phospho-SMAD1/5/8, anti-phospho-SMAD2 (Cell Signaling, Beverly, Mass.), or anti-α-tubulin (Upstate/Millipore, Billerica, Mass.) Abs; and visualized using ECL Plus (GE Healthcare, Piscataway, N.J.). Levels of immunoreactive proteins were quantitated by ImageQuant software on a Storm phosphorimager (GE Healthcare).
Murine PASMCs grown to 50% confluence in 6-well plates were transiently transfected with 0.3 μg Id1 promoter luciferase reporter construct (BRE-Luc, Dr. Peter ten Dijke, Leiden University Medical Center, Netherlands (Korchynskyi et al., J. Biol. Chem. 277:4883-4891, 2002)) in combination with 0.6 μg plasmids expressing constitutively-active forms of BMP type I receptors (caALK2, caALK3, or caALK6, kindly provided by Dr. Kohei Miyazono, University of Tokyo, Japan (Fujii et al., Mol. Biol. Cell 10:3801-3813, 1999)), using Fugene6 (Roche). […] Cell extracts were harvested, and relative promoter activity quantitated by the ratio of firefly to Renilla luciferase activity using the dual luciferase assay kit (Promega). […] Hepcidin promoter activity was measured by luciferase assay as above.

[3] = tested on: hepatic SMAD1/5/8 phosphorylation; assay: Iron-dextran challenge: hepatic SMAD1/5/8 phosphorylation in adult zebrafish; format: in vivo; design: dose or concentration left out as unconfirmed; conditions: co-injection with iron-dextran, intraperitoneal, 1 hour
C2C12 cells = assay: BMP-induced alkaline phosphatase activity (osteogenic differentiation) in C2C12 cells; format: cell-based
Experimental: C2C12 cells were seeded into 96 well plates at 2000 cells per well in DMEM supplemented with 2% FBS. Wells were treated in quadruplicate with BMP ligands and Compound C/Dorsomorphin or vehicle. Cells were harvested after 5 days in culture with 50 μl Tris buffered saline/1% Triton X-100. Lysates were added to p-nitro-phenylphosphate reagent in 96-well plates (Sigma) for 1 hour, and alkaline phosphatase activity expressed as absorbance at 405 nm. Cell viability and quantity were measured by Cell-titer Glo (Promega) and binding of nuclear dye CyQuant (Invitrogen), respectively, using replicate wells treated identically to those used for alkaline phosphatase measurements.

chordin morphant embryos = assay: Rescue of ventralization in chordin morphant zebrafish embryos; format: in vivo; conditions: 20 μM at 2 hpf, 36 hpf
Description: Since treatment with Compound C/Dorsomorphin mimics BMP antagonism in zebrafish, it was postulated that Compound C/Dorsomorphin might rescue ventralization caused by loss of the endogenous BMP antagonist chordin ([…] et al., Development 123:143-151, 1996; Nasevicius et al., Nat. Genet. 26:216-220, 2000). […] Genet. 26:216-220, 2000; Leung et al., Dev. Biol. 277:235-254, 2005). […] Therefore, Compound C/Dorsomorphin treatment compensates for the loss of an endogenous BMP antagonist in zebrafish embryos, confirming its function as a BMP antagonist.

hepcidin (HAMP) mRNA = assay: Hepcidin mRNA qRT-PCR in HepG2 cells; format: cell-based, human; conditions: 10 μM in combination with BMP2
Experimental: Quantitative RT-PCR was performed for mRNA encoding Id1 or human hepcidin (HAMP) as previously described (Babitt et al., Nat. Genet. 38:531-539, 2006; Yu et al., J. Biol. Chem. 280:24443-24450, 2005), and normalized to 18S ribosomal RNA (rRNA) or β-actin mRNA levels.

caALK4 = molecular target: T2, caALK4 (Homo sapiens, UniProt P36896, T206D); assay: Constitutively-active ALK4 PAI-1 promoter reporter (CAGA-Luc); format: cell-based; conditions: PASMCs, up to 20 μM
T2 construct: expressed in transfected cells; host or cells: murine PASMCs, transient transfection
Experimental: as §1

[4] = 6-somite stage, treatment at 1 hpf

T1 sequence (P36894 24-532 Q233D): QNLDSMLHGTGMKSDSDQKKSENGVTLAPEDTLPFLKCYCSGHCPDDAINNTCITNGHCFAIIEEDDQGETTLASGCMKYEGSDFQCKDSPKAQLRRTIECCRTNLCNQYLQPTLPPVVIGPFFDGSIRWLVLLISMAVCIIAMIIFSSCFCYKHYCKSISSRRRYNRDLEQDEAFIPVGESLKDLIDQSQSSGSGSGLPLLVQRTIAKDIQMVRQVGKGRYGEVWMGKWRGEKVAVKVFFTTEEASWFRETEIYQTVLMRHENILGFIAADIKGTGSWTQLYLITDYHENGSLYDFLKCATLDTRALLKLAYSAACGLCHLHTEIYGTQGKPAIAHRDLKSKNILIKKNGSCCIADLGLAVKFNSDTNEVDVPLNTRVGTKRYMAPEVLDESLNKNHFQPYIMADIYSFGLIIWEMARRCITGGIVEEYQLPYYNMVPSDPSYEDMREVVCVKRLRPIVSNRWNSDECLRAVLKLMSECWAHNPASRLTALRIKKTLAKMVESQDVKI
T2 sequence (P36896 24-505 T206D): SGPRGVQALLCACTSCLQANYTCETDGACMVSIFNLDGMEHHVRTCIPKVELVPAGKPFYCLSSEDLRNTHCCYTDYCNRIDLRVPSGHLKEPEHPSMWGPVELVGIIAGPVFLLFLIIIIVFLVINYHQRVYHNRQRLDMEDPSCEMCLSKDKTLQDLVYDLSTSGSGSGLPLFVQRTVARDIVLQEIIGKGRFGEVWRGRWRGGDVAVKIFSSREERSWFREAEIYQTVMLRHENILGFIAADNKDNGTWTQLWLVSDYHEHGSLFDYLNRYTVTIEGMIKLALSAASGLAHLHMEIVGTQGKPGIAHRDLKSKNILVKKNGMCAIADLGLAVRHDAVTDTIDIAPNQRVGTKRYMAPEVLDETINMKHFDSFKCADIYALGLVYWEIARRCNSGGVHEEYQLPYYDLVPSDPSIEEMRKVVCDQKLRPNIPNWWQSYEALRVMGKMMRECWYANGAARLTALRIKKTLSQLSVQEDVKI

In the case of `c1cc(-c2cnn3cc(-c4ccc(OCCN5CCCCC5)cc4)cnc23)ccn1` [Compound C/Dorsomorphin], the “liver hepcidin mRNA relative to controls” value [1] is reported as “one-third”, the “effect on HJV-induced hepcidin promoter activity (Hep-Luc)” value (hepcidin promoter; Hep3B cells transfected with HJV) is reported as “effectively abrogated; also recorded: blocked” and the “effect on BMP2-induced hepcidin promoter activity (Hep-Luc)” value (hepcidin promoter; Hep3B cells, 10 μM, BMP2 25 ng/ml) is reported as “effectively abrogated”. The “effect on iron-dextran-induced hepatic hepcidin mRNA” value (zebrafish hepcidin mRNA) was “inhibited the increase; also recorded: not significantly different from dextran-treated fish”, the “expression of Krox20 (rhombomeres 3 and 5) and MyoD” value [2, 4] was “induced lateral expansion; also recorded: expand laterally” and the “expression of dorsal marker pax2.1” value [2, 4] was “induced expansion; also recorded: expands laterally”. The “expression of ventral marker eve1” value ([2]; 18-somite stage, 10 μM at 1 hpf) was “reduced; also recorded: do not exhibit eve1 expression in the distal tail”, the “effect on caALK3-induced increase in phospho-SMAD1/5/8” value (caALK3; 10 μM, immunoblot) was “inhibited” and the “effect on caALK3-mediated Id1 promoter activity (BRE-Luc)” value (caALK3; 0.25-10 μM) was “inhibited; also recorded: decreased”. The “reduction of hepatic SMAD1/5/8 phosphorylation vs iron-dextran and vehicle” value [3] was roughly 3 fold, the “inhibition of osteogenic differentiation compared with noggin” value (C2C12 cells; 4 μM vs noggin 100 ng/ml) was “more potent than that seen with pretreatment of cells with 100 ng/ml of noggin” and the “effect on BMP4- or BMP6-induced alkaline phosphatase activity (osteogenic differentiation)” value (C2C12 cells; 4 μM, 5 days) was “completely inhibits; also recorded: almost completely abolished; also recorded: inhibited”. For the same molecule, the “ventralization of chordin morphant embryos” value (chordin morphant embryos) was “prevented ventralization and ICM expansion; also recorded: little or no ventralization”, the “hepcidin mRNA with BMP2 co-treatment” value (hepcidin (HAMP) mRNA) was “abolished; also recorded: below the basal level” and the “effect on caALK4-mediated PAI-1 promoter activity (CAGA-Luc)” value (caALK4) was “did not inhibit; also recorded: not decreased”.
